{"source": "the supplement of paper PMC10307832", "data": [{"compound": "CC(C)(C)c1nc(-c2cccc(NS(=O)(=O)c3c(F)cccc3F)c2F)c(-c2ccnc(N)n2)s1 [Dabrafenib]", "test": "relative viability (nuclei count vs DMSO), 5 days (fraction); higher = more cells survive", "details": "0.3 µM", "method_in_brief": "(§1)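 Five library-drug doses spaced by √10 were pinned onto vehicle-anchored 1536-well plates of lung cancer cell lines that had been kept overnight at 37 °C. Cells went 5 days without medium change, then were fixed, permeabilised and Hoechst-stained together, imaged at 4× and counted by MetaXpress. Viability is the ratio of treated-well to vehicle-well nuclei, taken as a median over plates. Plates required control CV below 25% and at least one doubling.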", "values": [{"cell line": "NCI-H1915", "relative viability": 0.579}, {"cell line": "NCI-H727", "relative viability": 1.1}, {"cell line": "NCI-H1975", "relative viability": 0.854}, {"cell line": "LK-2", "relative viability": 1.05}, {"cell line": "HCC-366", "relative viability": 1.11}, {"cell line": "NCI-H2087", "relative viability": 0.898}, {"cell line": "LCLC-97TM1", "relative viability": 0.756}, {"cell line": "NCI-H661", "relative viability": 0.958}, {"cell line": "NCI-H2405", "relative viability": 0.961}]}, {"compound": "NC(=O)c1ccc(N(C(N)=O)c2c(F)cccc2F)nc1-c1ccc(F)cc1F [VX-702]", "test": "relative viability (nuclei count vs DMSO), 5 days (fraction); higher = more cells survive", "details": "0.02 µM", "method_in_brief": "as §1", "values": [{"cell line": "A-427", "relative viability": 0.985}, {"cell line": "NCI-H1355", "relative viability": 1.07}, {"cell line": "NCI-H1792", "relative viability": 0.763}, {"cell line": "HCC-15", "relative viability": 0.989}, {"cell line": "LU99A", "relative viability": 1.05}, {"cell line": "EKVX", "relative viability": 0.95}, {"cell line": "Calu-6", "relative viability": 1.11}, {"cell line": "COR-L23", "relative viability": 1.17}, {"cell line": "NCI-H1437", "relative viability": 0.995}, {"cell line": "RERF-LC-KJ", "relative viability": 0.989}, {"cell line": "NCI-H1734", "relative viability": 1.04}, {"cell line": "BEN", "relative viability": 0.853}, {"cell line": "NCI-H460", "relative viability": 1.02}, {"cell line": "H3255", "relative viability": 0.978}, {"cell line": "SK-LU-1", "relative viability": 1.15}, {"cell line": "NCI-H1793", "relative viability": 0.916}, {"cell line": "NCI-H23", "relative viability": 1.07}, {"cell line": "SW 1573", "relative viability": 1.08}, {"cell line": "NCI-H838", "relative viability": 0.968}, {"cell line": "EPLC-272H", "relative viability": 1.03}, {"cell line": "NCI-H3122", "relative viability": 1.01}, {"cell line": "NCI-H1563", "relative viability": 0.991}, {"cell line": "NCI-H1915", "relative viability": 1.08}, {"cell line": "NCI-H727", "relative viability": 1.09}, {"cell line": "NCI-H1975", "relative viability": 0.97}, {"cell line": "LK-2", "relative viability": 1.02}, {"cell line": "HCC-366", "relative viability": 1.06}, {"cell line": "NCI-H2087", "relative viability": 1.17}, {"cell line": "LCLC-97TM1", "relative viability": 0.938}, {"cell line": "NCI-H661", "relative viability": 1.02}, {"cell line": "NCI-H2405", "relative viability": 1.09}]}, {"compound": "NC(=O)c1ccc(N(C(N)=O)c2c(F)cccc2F)nc1-c1ccc(F)cc1F [VX-702]", "test": "relative viability (nuclei count vs DMSO), 5 days (fraction); higher = more cells survive", "details": "0.2 µM", "method_in_brief": "as §1", "values": [{"cell line": "A-427", "relative viability": 0.964}, {"cell line": "NCI-H1355", "relative viability": 0.997}, {"cell line": "NCI-H1792", "relative viability": 0.87}, {"cell line": "HCC-15", "relative viability": 0.982}, {"cell line": "LU99A", "relative viability": 0.912}, {"cell line": "EKVX", "relative viability": 0.863}, {"cell line": "Calu-6", "relative viability": 1}, {"cell line": "COR-L23", "relative viability": 1.05}, {"cell line": "NCI-H1437", "relative viability": 0.973}, {"cell line": "RERF-LC-KJ", "relative viability": 1.03}, {"cell line": "NCI-H1734", "relative viability": 0.919}, {"cell line": "BEN", "relative viability": 0.879}, {"cell line": "NCI-H460", "relative viability": 0.95}, {"cell line": "H3255", "relative viability": 0.966}, {"cell line": "SK-LU-1", "relative viability": 1.04}, {"cell line": "NCI-H1793", "relative viability": 0.79}, {"cell line": "NCI-H23", "relative viability": 0.87}, {"cell line": "SW 1573", "relative viability": 0.923}, {"cell line": "NCI-H838", "relative viability": 0.948}, {"cell line": "EPLC-272H", "relative viability": 0.827}, {"cell line": "NCI-H3122", "relative viability": 0.979}, {"cell line": "NCI-H1563", "relative viability": 1.06}, {"cell line": "NCI-H1915", "relative viability": 1}, {"cell line": "NCI-H727", "relative viability": 1}, {"cell line": "NCI-H1975", "relative viability": 0.923}, {"cell line": "LK-2", "relative viability": 0.84}, {"cell line": "HCC-366", "relative viability": 0.969}, {"cell line": "NCI-H2087", "relative viability": 1.01}, {"cell line": "LCLC-97TM1", "relative viability": 0.982}, {"cell line": "NCI-H661", "relative viability": 0.98}, {"cell line": "NCI-H2405", "relative viability": 0.941}]}, {"compound": "NC(=O)c1ccc(N(C(N)=O)c2c(F)cccc2F)nc1-c1ccc(F)cc1F [VX-702]", "test": "relative viability (nuclei count vs DMSO), 5 days (fraction); higher = more cells survive", "details": "0.6325 µM", "method_in_brief": "as §1", "values": [{"cell line": "A-427", "relative viability": 1.04}, {"cell line": "NCI-H1355", "relative viability": 1.02}, {"cell line": "NCI-H1792", "relative viability": 0.866}, {"cell line": "HCC-15", "relative viability": 1.08}, {"cell line": "LU99A", "relative viability": 1.02}, {"cell line": "EKVX", "relative viability": 0.891}, {"cell line": "Calu-6", "relative viability": 1.08}, {"cell line": "COR-L23", "relative viability": 1.16}, {"cell line": "NCI-H1437", "relative viability": 1.06}, {"cell line": "RERF-LC-KJ", "relative viability": 1.01}, {"cell line": "NCI-H1734", "relative viability": 0.876}, {"cell line": "BEN", "relative viability": 0.866}, {"cell line": "NCI-H460", "relative viability": 1.06}, {"cell line": "H3255", "relative viability": 0.96}, {"cell line": "SK-LU-1", "relative viability": 1.1}, {"cell line": "NCI-H1793", "relative viability": 0.968}, {"cell line": "NCI-H23", "relative viability": 1.1}, {"cell line": "SW 1573", "relative viability": 0.899}, {"cell line": "NCI-H838", "relative viability": 0.984}, {"cell line": "EPLC-272H", "relative viability": 1.02}, {"cell line": "NCI-H3122", "relative viability": 1}, {"cell line": "NCI-H1563", "relative viability": 0.976}, {"cell line": "NCI-H1915", "relative viability": 1}, {"cell line": "NCI-H727", "relative viability": 0.84}, {"cell line": "NCI-H1975", "relative viability": 1.08}, {"cell line": "LK-2", "relative viability": 0.811}, {"cell line": "HCC-366", "relative viability": 0.98}, {"cell line": "NCI-H2087", "relative viability": 0.997}, {"cell line": "LCLC-97TM1", "relative viability": 0.996}, {"cell line": "NCI-H661", "relative viability": 1.04}, {"cell line": "NCI-H2405", "relative viability": 0.978}]}, {"compound": "NC(=O)c1ccc(N(C(N)=O)c2c(F)cccc2F)nc1-c1ccc(F)cc1F [VX-702]", "test": "relative viability (nuclei count vs DMSO), 5 days (fraction); higher = more cells survive", "details": "2 µM", "method_in_brief": "as §1", "values": [{"cell line": "A-427", "relative viability": 0.754}, {"cell line": "NCI-H1355", "relative viability": 1.08}, {"cell line": "NCI-H1792", "relative viability": 1.05}, {"cell line": "HCC-15", "relative viability": 1.03}, {"cell line": "LU99A", "relative viability": 0.781}, {"cell line": "EKVX", "relative viability": 0.923}, {"cell line": "Calu-6", "relative viability": 1.21}, {"cell line": "COR-L23", "relative viability": 1.21}, {"cell line": "NCI-H1437", "relative viability": 1.15}, {"cell line": "RERF-LC-KJ", "relative viability": 1.03}, {"cell line": "NCI-H1734", "relative viability": 0.703}, {"cell line": "BEN", "relative viability": 1.06}, {"cell line": "NCI-H460", "relative viability": 0.989}, {"cell line": "H3255", "relative viability": 1.05}, {"cell line": "SK-LU-1", "relative viability": 1.17}, {"cell line": "NCI-H1793", "relative viability": 0.844}, {"cell line": "NCI-H23", "relative viability": 1.16}, {"cell line": "SW 1573", "relative viability": 1.03}, {"cell line": "NCI-H838", "relative viability": 1.07}, {"cell line": "EPLC-272H", "relative viability": 1.01}, {"cell line": "NCI-H3122", "relative viability": 1}, {"cell line": "NCI-H1563", "relative viability": 1.07}, {"cell line": "NCI-H1915", "relative viability": 1.05}, {"cell line": "NCI-H727", "relative viability": 1.04}, {"cell line": "NCI-H1975", "relative viability": 1.22}, {"cell line": "LK-2", "relative viability": 1.04}, {"cell line": "HCC-366", "relative viability": 0.587}, {"cell line": "NCI-H2087", "relative viability": 1.08}, {"cell line": "LCLC-97TM1", "relative viability": 0.937}, {"cell line": "NCI-H661", "relative viability": 1.1}]}]}
